The values that follow come from patent US20170158636A1, “FUNCTIONALISED AND SUBSTITUTED CARBAZOLES AS ANTI-CANCER AGENTS” (Novogen Ltd., priority 2014, published 2017).

Holding throughout (assay type): cell-based
In test [1] the test system is actin cytoskeleton in SK-N-SH neuroblastoma cells. The experiment in a line: Microfilament disruption assay (phalloidin staining, linear feature quantitation). Conditions: 0-40 μM, 24 hours post treatment. How it is done: FIG. 1: Imaging and quantitation of actin filaments in SK-N-SH neuroblastoma cells treated with compound (A) 1007, (B) 1013 and (C) 1016. Cells were stained with 488-Atto-Phallodin and DAPI to visualize the actin filament bundles and the nucleus, respectively. Shown in the top panel is a representative gray scale immunofluorescent image from control (vehicle alone), 5 μM and 10 μM treated cells. […] The coloured lines indicate the detected actin filaments. Also shown is the quantitation of cell number, filament number/cell and filament number/cell area (μM^2). Statistical analysis was performed using a one way ANNOVA-multiple comparison where each drug treated group was compared to the control. ****p<0.0001, […].
The ability of compounds 1007, 1013 and 1016 to disrupt the actin cytoskeleton was assessed in vitro using the microfilament disruption assay (FIG. 1).
Briefly, SK-N-SH neuroblastoma cells were seeded at 1800 cells/well in a 384 Perkin Elmer High Content Imaging “Cell Carrier” plate and left to plate down 24 hours prior to treatment. Cells were then treated with 0-40 μM of the test compounds (1:2 serial dilution in a 10 point dose response). 24 hours post treatment, cells were fixed with 4% w/v paraformaldehyde (PBS), permeabilized with Triton-X-100 and stained with 488-Atto-Phallodin and DAPI to visualize the actin filament bundles and the nucleus respectively. Single plane images were obtained on the Perkin Elmer Opera confocal microscope using a 20× objective. Twelve fields of view per condition (representing approximately 300-800 cells) were imaged. Images were then exported and changes in the organization and numbers of actin filaments within the cell were quantitated using a linear feature detection algorithm developed by CSIRO (Vindin et al. 2014). This algorithm detects the “ridge lines” or “peaks” in local pixel intensity in the cell image. It is these “ridge lines” that correspond to actin filament bundles and allow us to quantitate the number of filaments per cell.

In test [2] the test system is DU145 prostate cancer cells. The experiment in a line: Anti-proliferative activity, cell-titre luminescent viability assay. Conditions: Homo sapiens, DU-145, 72 hours exposure. A digest of the protocol: (§1)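 Seeded cell lines attached 24 h (37° C, 5% CO2), then received compound for 72 h before a 30 min luminescent viability read versus untreated control. Four-point series (0.03–30 μM) gave IC50 by linear regression of semi-log percent-of-control plots; six-point series (0.1–30 μM) gave vehicle-normalized EC50 from variable-slope sigmoidal fits.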

The subject of the next test is SK-Mel-28 melanoma cells. The description is as above. Conditions: Homo sapiens, 72 hours exposure. A digest of the protocol: as §1
Test [3] concerns SK-N-SH neuroblastoma cells. Described as above. Conditions: Homo sapiens, 72 hours exposure. A digest of the protocol: as §1
Test [4] deals with CaCo2 colorectal cancer cells. The description is as above. The note with it: Homo sapiens, Caco-2, 72 hours exposure. A digest of the protocol:
as §1

The subject of test [5] is MDA-MB-231 breast cancer cells. The test is described as above. Conditions: Homo sapiens, 72 hours exposure. A digest of the protocol: as §1
Test [6] has as its system PC3 prostate cancer cells. The test is described as above. Conditions: 72 hours exposure. A digest of the protocol: as §1
Test [7] concerns A549 lung (NSLC) cancer cells. The description is as above. Conditions: Homo sapiens, 72 hours exposure. A digest of the protocol: as §1
Test [8] deals with Tpm3.1-containing actin filaments in SK-N-SH neuroblastoma cells. The experiment in a line: Disruption of Tpm3.1-containing actin filaments (γ9d staining). The note with it: SK-N-SH cells, 0, 5 and 7.5 μM, 48 hours post treatment. The method, then: FIG. 2: Imaging and quantitation of Tpm3.1-containing actin filaments in SK-N-SH neuroblastoma cells treated with compound (A) 1007, (B) 1013 and (C) 1016. Cells were stained with γ9d (sheep polycolonal, 1:100) followed by 488-conjugated secondary (1:1000) and DAPI to visualize the Tpm3.1 containing filament bundles and the nucleus, respectively. Shown in the top panel is a representative gray scale immunofluorescent image from control (vehicle alone), 5 μM and 7.5 μM treated cells. […] The coloured lines indicate the detected Tpm3.1 containing actin filaments. Also shown is the quantitation of cell number, Tpm3.1 filament number/cell and Tpm3.1 filament number/cell area (μM^2). Statistical analysis was performed using a one way ANNOVA-multiple comparison where each drug treated group was compared to the control. ****p<0.0001.
Another assay was conducted to assess the ability of compounds 1007, 1013 and 1016 to specifically disrupt actin filaments containing Tpm3.1 (FIG. 2). Briefly, SK-N-SH neuroblastoma cells were seeded at 2×10^4 cells/mL in a 10 cm tissue culture plate and left to plate down 24 hours prior to treatment. Cells were then treated with 0, 5 and 7.5 μM of the test compounds. 48 hours post treatment, cells were fixed with 4% w/v paraformaldehyde (PBS), permeabilized with Triton-X-100 and stained with γ9d (sheep polycolonal, 1:100) followed by 488-conjugated secondary (1:1000) and DAPI to visualize the Tpm3.1 containing filament bundles and the nucleus, respectively. Single plane images were obtained on the Zeiss epifluorescent Axioscope microscope using a 20× objective. Six fields of view per condition were imaged. Images were then exported and the linear features (actin filaments containing Tpm3.1) were then quantitated using the linear feature detection algorithm described above.

Regarding `CCN(CC)CCCn1c2ccccc2c2cc(C(=O)N3CCN(CCc4ccc(F)cc4)CC3)ccc21` [Compound 1007, (9-(3-(diethylamino)propyl)-9H-carbazol-3-yl)(4-(4-fluorophenethyl)piperazin-1-yl)methanone], the “disruption of the actin cytoskeleton” value in test [1] was “disrupt the actin cytoskeleton in a dose-dependent manner”. In addition, the IC50 – broadly, the concentration that inhibits the measured activity by half – in test [2] was determined as 3 µM; with SK-Mel-28 melanoma cells, 1.2 µM; in test [3], 1.6 µM; in [4], 2.8 µM; in test [5], 2.4 µM; in [6], 3.2 µM. Further, in test [7], the IC50 was 1.9 µM. Moreover, the “disruption of Tpm3.1-containing actin filaments” value in [8] is “disrupt Tpm3.1-containing actin filaments in a dose-dependent manner”.
